The melting point is the temperature, or range, at which the solid turns liquid.

Molecules are shown by their SMILES.

With `O=C(NNC(=O)c1cccc([N+](=O)[O-])c1)c1cccc([N+](=O)[O-])c1`, the melting point was 245 °C.
Then `O=C(c1ccccc1)c1ccc2sc(NCCCO)nc2c1`, with 162 °C; and `CCOC(=O)c1c(CN(CC)CC)nc2sc3c(c2c1-c1ccc(OC)c(OC)c1)CCN(S(=O)(=O)c1ccccc1)C3`, with 161 to 162 °C.
Compound `COc1c([N+](=O)[O-])ncn1C` had a melting point of 140 to 141 °C.
The same measure for `CC(=O)c1ccc(-c2ccc(Cl)cc2)c(N)c1`: 139 to 140 °C; for `CCOc1cccc(C(S)C(=O)O)c1` (stereo not drawn): 105 to 107 °C.
In the case of `c1ccc(OCCSCc2nnc(-c3ccc(OCCCCN4CCCCC4)cc3)o2)cc1`, the melting point was in the range of 57 to 62 °C.
The same measure for `CC(C)Cc1nc2c(N)nc3ccccc3c2n1CCOc1ccccc1`: 177 to 178 °C; for `Cn1cc(C2c3ccc(Cl)cc3C=Cc3sc(N)nc32)c(=O)[nH]c1=O` (stereo not drawn): over 240 °C; for `O=C(O)c1cccnc1Nc1cccc(Cl)c1`: 197 to 199 °C.
Then `CCCCc1nc2cncnc2[nH]1`, with 168 °C; and `COc1cc(NS(C)(=O)=O)ccc1-c1nc2cc3c(cc2[nH]1)NC(=O)C3(C)C`, with over 300 °C.
`OC1CCN(C(c2ccccc2)(c2ccccc2)c2ccccc2)CC1`: the melting point lay within 157 to 158 °C.
Then `NNc1nccc2nc(-c3ccccc3)nn12`, with 216 to 218 °C; and `N#Cc1cccc(-c2nc(N3CCC(O)C3)cc3cccnc23)c1` (stereo not drawn), with 132 to 133 °C.
The same measure for `Cc1cc(C(F)(F)F)nn1CC(=O)N1CCC(c2nc(C3=NOC(c4cccc(-n5cncn5)c4)C3)cs2)CC1` (stereo not drawn): 83 to 85 °C.
`CC(C)(C)c1cc(CCc2ccccc2NC(=O)N2CCC3(CC2)OCCO3)cc(C(C)(C)C)c1O`: the melting point fell in the range of 163 to 164 °C.
As to `Cc1nc(Cc2ccc(NC(=O)/C=C/c3cnn(C)c3-c3ccc(F)cc3)cc2)no1`, the melting point fell in the range of 183 to 184 °C.
The compound `CCc1nn(CCN)c(CO)c1Oc1cc(Cl)cc(Cl)c1` yielded a melting point of 105 to 107 °C.
The same measure for `COC(=O)c1cc(C)cc(C(C)(C)C#N)c1`: 53.8 to 55.9 °C; for `O=C(CCC(=O)N1CCC[C@H]1C(=O)O)c1ccc(Cl)s1`: 131 to 133 °C.
The same measure for `CCCCC(=O)Nc1ccc(C(F)(F)F)c(-n2nc(CCCC)n(Cc3ccc(-c4ccccc4S(=O)(=O)NC(=O)OC(C)(C)C)cc3F)c2=O)c1`: 179 to 182 °C; for `CCOC(=O)N1CC[C@H](Oc2cccc(F)c2)[C@H](c2ccccc2)C1` (relative stereo): 74 to 76.5 °C; for `CN(C)c1cc(C(O)CS(C)(=O)=O)cc(N(C)C)c1` (stereo not drawn): 128 to 130 °C.
Then `CC(=O)Oc1cc([N+](=O)[O-])cc2c1OC(C)(C)C2`, with 142 to 143 °C; and `COc1ccc(C=CC(=O)c2ccc(OC)cc2O)cc1`, with 108 °C.
Take `CCCCC1(CCCC)NC(c2nc(-c3ccccc3)cs2)Cc2c1[nH]c1ccccc21` (stereo not drawn): the melting point fell in the range of 134 to 136 °C.
The same measure for `COc1cc(OC)c2c(=O)[nH]c(-c3ccc(O)c(CCO)c3)nc2c1`: 249 to 250 °C.
The same measure for `CC=Cc1cccc2c(=O)c(C)c(NC(=O)OC(C)(C)C)oc12`: 200 to 203 °C; for `CC(C)C[C@H](NS(=O)(=O)c1cccnc1)C(=O)N[C@@H](C(C)C)[C@@H](O)c1c(-c2ccccc2)c1=O`: 110 to 112 °C; for `Cc1c[nH]c2c([N+](=O)[O-])ccc(Cl)c2c1=O`: over 250 °C.
The same measure for `O=C(Nc1ccc2c3c(oc2c1)CCC(O)C3O)c1c(Cl)cccc1Cl` (stereo not drawn): 206 to 209 °C; for `CC1C(=O)Nc2cc(N)c(N)cc21` (stereo not drawn): over 300 °C; for `COc1ccc(CCOc2ccc(NC(=O)N(C)OC)cc2)cc1`: 100 to 101 °C.
For `Cc1sc(C)c(Cc2nc3c(F)c(F)cc(F)c3s2)c1CC(=O)O`, the melting point is 170 to 171 °C.
The same measure for `O=C(O)c1cc(Cl)c(Cl)c2c1OCC(CO)O2` (stereo not drawn): 175 to 177 °C.
The same measure for `COC(=O)CSC(c1ccccc1Cl)c1ccccc1Cl`: 90 to 92 °C.
The same measure for `CCCCC(CC)C(=O)Nc1ccc(-n2nc3ccc(C(F)(F)F)cc3n2)c(O)c1` (stereo not drawn): 179 to 181 °C; for `C=CC(=O)N(CC)c1cn(-c2cccnc2)nc1Cl`: 67 to 68 °C.
`CN(C)C1CC2(C)C(=O)CCC2C2CCC3CC(O)CCC3(C)C21` (stereo not drawn): the melting point was in the range of 135 to 136 °C.
Compound `CN1[C@H]2CC[C@@H]1[C@@H](CO)[C@@H](c1ccc(F)cc1)C2` registered a melting point of 79 to 80 °C.
In the case of `c1ncn(Cc2ccc3c(c2)-c2[nH]nc(-c4ccsc4)c2C3)n1`, the melting point is 243 to 245 °C.
For `CC(C)(C)OC(=O)Nc1ccc(F)nc1`, the melting point lay within 112 to 113 °C.
Then `CCOC(=O)C(NC(=O)Nc1c(F)cc(F)cc1CCc1cc(C(C)(C)C)c(O)c(C(C)(C)C)c1)c1ccccc1` (stereo not drawn), with 162 to 164 °C.
`COc1cc(C=CC(=O)c2ccccc2F)cc(OC)c1`: the melting point is 71.6 to 72.5 °C.
For `O=C(O)C1CCc2ccc3[nH]ccc3c21` (stereo not drawn), the melting point fell in the range of 166 to 167 °C.
Then `Oc1nc(-c2cccnc2)sc1-c1ccccc1`, with 273 to 276 °C; and `CCOC(=O)C1C=Nc2c(ccc3cccnc23)C1=O` (stereo not drawn), with 242 to 244 °C.
The same measure for `CC1(C)OC(=O)C(=Cc2ccc(I)s2)C1=O`: 182 to 184 °C; for `COC(=O)C(=O)c1ccc(SCCOc2ccc3ccccc3c2)cc1`: 124 to 125 °C.
The same measure for `CCCCOc1cc(/C=C(\OCC)C(=O)O)ccc1OCCc1ccc(OS(=O)(=O)CCCC)c(F)c1`: 99 °C; for `CCOC(=O)Cc1ccc(NC(=O)/C=C/c2cnn(C)c2-c2ccc(F)cc2)cc1`: 177 to 178 °C; for `COc1cc(OC)nc(NC(=O)NS(=O)(=O)c2ncccc2C(O)CF)n1` (stereo not drawn): 119 to 120 °C.
In turn, `CS(=O)(=O)Nc1ccc(C(=O)Cc2ccccc2)cc1Sc1ccc(F)cc1F` returned a melting point of 120 to 122 °C.
The same measure for `CC1=C(C(=O)OCC2COc3ccccc3O2)C(c2c(F)c(F)c(F)c(F)c2F)C2=C(CNCC2=O)N1` (stereo not drawn): 167 to 170 °C; for `CC(C)(C)c1ccc(-c2ccc(F)cc2)n1CC[C@H]1C[C@H](O)CC(=O)O1` (relative stereo): 177 to 178 °C; for `COc1cc2nc(S(=O)Cc3nccc(N(C)C)c3F)[nH]c2cc1OC` (stereo not drawn): 208 to 210 °C.
Then `COc1ccc2nc(Cl)cc(C)c2c1`, with 144 to 145 °C.
Then `Cc1ncc2cc(-c3cc(C(F)(F)F)cc(C(F)(F)F)c3)ccc2n1`, with 208 to 210 °C; and `Cc1c(NC(=O)c2ccc(OC[C@@H]3CCCO3)cc2)ccc2cc(CNCC3CCOCC3)cnc12`, with 92 to 94 °C.
`O=c1c2ccccc2nnn1CCCN1CCC(c2c[nH]c3ccccc23)CC1`: the melting point is 60 °C.
The compound `CN(C)S(=O)(=O)c1ccc2c(c1)S(=O)(=O)NC(C(F)(F)F)=N2` had a melting point of 240 to 242 °C.
Compound `COc1cccc2c1OCN(CCc1ccccc1Cl)C2` had a melting point of 79 to 81 °C.
Then `COc1c(F)c(F)c(N)c2c(=O)c(C(=O)O)cn(C3CC3)c12`, with 291 to 292 °C; and `CCN1C(=O)C=C(c2ccc(Cl)c(Cl)c2)C1=O`, with 138 to 141 °C; and `Cn1nc(N)c2cc3ccc(O)cc3nc21`, with 288 to 290 °C.
Then `CC(C)OP(=O)(CC1(C(=O)O)CCCC1)OC(C)C`, with 53 to 57 °C; and `O=[N+]([O-])C(=CC(O)C(=C1NCCN1Cc1ccc(Cl)nc1)[N+](=O)[O-])C1=NCCN1Cc1ccc(Cl)nc1` (stereo not drawn), with 157 to 162 °C.
Then `CCOC(=O)CNC(=O)Nc1ccc(S(=O)(=O)Nc2onc(C)c2C)cc1`, with 115 to 125 °C.
`CC(=O)C(C)(C)C(C=C(Cl)C(F)(F)F)OS(C)(=O)=O` (stereo not drawn) returned a melting point of 50 to 52 °C.
The same measure for `CCOC(CN1CCOCC1)CN1C(=O)c2ccccc2CS1(=O)=O` (stereo not drawn): 128 to 129 °C; for `COc1ccc(C(=NO)c2c(F)cccc2F)c(Cl)c1Cl`: 180 to 186 °C.
The same measure for `CCOC(=O)c1ccc(CCC2CC(n3c4ccccc4c4ccccc43)c3ccccc3N2C(=O)c2ccc(OC)c(OC)c2)cc1` (stereo not drawn): 247 to 249 °C; for `CC(=O)NCC1CN(c2ccc(N3CCN(c4nnc(C#N)s4)C(F)C3)cc2)C(=O)O1` (stereo not drawn): 200 to 202 °C.
`COC(=O)c1cc(OCc2ccc(OCc3nc(-c4ccco4)oc3C)c(OC)c2)nn1-c1ccccc1` displayed a melting point of 146 to 147 °C.
Then `COCCOc1cccc(-c2ccc(C3CCN(S(=O)(=O)C(C)(C)C(=O)O)CC3)cc2C)n1`, with 142 to 146 °C.
The same measure for `N#CC1CCc2ccc([N+](=O)[O-])cc2C(=O)C1` (stereo not drawn): 107 °C.
Then `Cc1cc(Br)c2c(c1)C=C(C(=O)O)C(C(F)(F)F)O2` (stereo not drawn), with 237 to 238 °C; and `CCCCCCCCCCCCc1c[nH]cn1`, with 69 to 71 °C.
Consider `CN(Cc1cccc2ccccc12)c1ncnc2c(N3CCOCC3)nc(N3CCC(N(C)C)CC3)nc12`, for which the melting point fell in the range of 146 to 148 °C.
The same measure for `O=C(CCCCCCOc1ccc(OCc2ccccc2)cc1)C(F)(F)F`: 82 to 83 °C.
Then `N#CCc1c[nH]c2ccc(CS(=O)(=O)Oc3ccccc3)cc12`, with 134 to 135 °C; and `CCn1ncc2c(O)c(C(=O)O)c(CCc3ccccc3)nc21`, with 160 to 161 °C; and `CCCN(CCC)CC1CCCCN1CCNC(=O)N1c2ccccc2NC(=O)c2c1ccn2C` (stereo not drawn), with 153 to 155 °C.
The same measure for `Cc1nc2c3c(ccn2c1C)C(O)CC(c1ccsc1)N3` (stereo not drawn): 192 to 194 °C; for `CC(C)c1cccc(C(C)C)c1NS(=O)(=O)CC#N`: 195 to 197 °C; for `CCc1nc2cnc3cc(OCC(=O)N4CCOCC4)ccc3c2n1CCOc1ccccc1`: 190 to 191 °C.
As to `CC(C)(C)OC(=O)N[C@@H]1C[C@H](CO)[C@@H](OC(=O)c2ccccc2)[C@H]1OC(=O)c1ccccc1`, the melting point was in the range of 78 to 79 °C.
